# Measured values as given in PMC11003484 (Journal of Enzyme Inhibition and Medicinal Chemistry, 2023).
# Structures can show the parent of a compound that is named as a salt.
# How the values were obtained:
# HEV helicase [1] = molecular target: T1, HEV helicase (Hepatitis E virus genotype 1, UniProt P33424); test: biochemical; assay type: biochemical
# T1 construct: The HEV helicase (735 bp) was amplified from the HEV (genotype 1; AF444002.1) cDNA clone; made in house; host or cells: E. coli BL21(DE3), pET28a; solubilised from inclusion bodies with NLS
# T1 sequence (P33424 960-1204): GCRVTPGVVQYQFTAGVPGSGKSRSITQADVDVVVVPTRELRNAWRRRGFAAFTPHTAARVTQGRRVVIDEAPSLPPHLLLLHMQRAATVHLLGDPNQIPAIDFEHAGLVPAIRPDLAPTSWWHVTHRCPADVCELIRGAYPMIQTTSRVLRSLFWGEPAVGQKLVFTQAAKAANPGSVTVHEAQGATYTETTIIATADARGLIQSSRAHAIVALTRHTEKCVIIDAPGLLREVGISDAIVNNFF
# From the text: (§1) The HEV helicase (735 bp) was amplified from the HEV (genotype 1; accession no. AF444002.1) cDNA clone pSK-HEV-2[23]^,[25] using the forward and reverse primers sets (5′agcc|atatgggttgccgtgtgacc3′ and 5′gtgc|tcgagttaaaagaagttgttcac3′). Following standard laboratory procedures, the amplified gene was cloned in the pET28a vector between NdeI and Xho I restriction sites. The cloning was verified using colony PCR using Nde I and Xho I (New England BioLabs, Ipswich, MA) double digestion and DNA sequencing. The recombinant plasmid was further transformed to BL21(DE3) using the routine protocol for expressing HEV helicase. The transformed recombinant BL21 cells were expanded until the culture’s optical density (OD600 nm) reached 0.6 before being induced with 0.4 mM IPTG (Sigma Aldrich, St. Louis, MO) at 26 °C for 4 h. The protein solubilisation was carried out as described previously. The Immobilised Metal Affinity Chromatography (IMAC) was used to purify the solubilised protein, and the protein was eluted in a buffer containing 10 mM Tris–Cl (pH 8.0), (Sigma Aldrich), 100 mM NaCl (Sigma Aldrich), 250 mM imidazole, and 0.1% N-lauryl Sarcosine (NLS; Sigma Aldrich). Further, the buffer of purified protein was exchanged with 10 mM Tris–Cl (pH 8.0), 100 mM NaCl, and 0.08% NLS before proceeding with enzyme assays.
# The NTPase activity of the HEV helicase enzyme was performed using a colorimetric-based Malachite green test[27]. The assay followed the manufacturer’s instructions The malachite green assay was performed as per the manufacturer’s protocol (Sigma Aldrich) cat no MAK307-1KT. The assay operates on the phosphate release from the reaction between malachite green and molybdate (AM/MG reagent) as the basis for complexation. […] The absorbance was measured on plate reader and a standard curve was generated using known concentrations of phosphate ranging from 0 to 44 uM to correlate absorbance with released phosphate concentration. The absorbance was plotted on Y-axis against the phosphate concentration on X-axis, and a straight-line equation (Y = 0.02182 * X + 0.04158) was determined using linear regression in GraphPad Prism version 9.0 (Boston, MA). The graphs were plotted as a function of the concentration of phosphate released. The effects of pH, temperature, enzyme concentration, and substrate concentration on helicase enzyme activity were studied to optimise enzyme activity.
# Based on their docking score, hydrogen bonds, and protein–ligand interaction, the five selected compounds from virtual screening were tested for their ability to suppress NTPase activity. The putative inhibitors’ concentrations ranged from 0 to 10 µM during the optimisation-focused inhibition tests on the purified protein’s NTPase activity. […] The working reagent was added after the reaction mixture had been incubated at RT for 10 min, and the absorbance was measured at 600 nm.
# (§2) All the experiments were performed in triplicates, and the graphs were plotted using GraphPad Prism software (Boston, MA).
# HEV helicase [2] = molecular target: T1, HEV helicase; test: Double-stranded RNA unwinding activity / inhibition assay (fluorescence); assay type: biochemical; conditions: dsRNA unwinding, purified helicase, RT
# From the text: as §1, §2
# [3] = test system: HEV replication (ORF2 expression); test: microbe, parasite or virus in culture; assay type: cell-based, Hepatitis E Virus
# From the text: (§3) For transfection, pSHEV-3 (cDNA clone of HEV genotype 3; accession no. AY575859.1) was linearised using Xba I (New England BioLabs). The helicase region of GT1 and GT3 share greater than 90% sequence homology Sub-genomic HEV carrying luciferase gene (accession number JQ679013) was linearised for replicon assay with MluI. The linearised DNA was subjected to in vitro transcription, as mentioned previously[26]^,[36], and the RNA was transfected in Huh7 cells using Lipofectamine 3000 (Invitrogen, Carlsbad, CA). Briefly, a day before transfection, approximately 0.8 × 10^6 cells were seeded in each well of a six-well plate, and for HEV replicon assay, ∼5–7 × 10[3] cells were seeded in each well of 96 plate. After 24 h, the media was removed, the cells were washed twice with Opti-MEM media (Gibco™, Grand Island, NY), and the transfection mixture was prepared as mentioned earlier[25]^,[26]. The cells were incubated with a transfection mixture for 6–8 h at 37 °C.
# For IFA, the cells were grown on a 96-well plate and transfected using Lipofectamine, as mentioned above. […] The cells were incubated for 4–5 d, and subsequently, the media was removed, and the cells were carefully washed twice with 1X PBS. The cells were fixed with 4% paraformaldehyde (PFA) and incubated for 5–10 min at RT. After fixing, the cells were again washed with 1× PBS, and the permeabilisation was performed using PBS with 0.1% Triton-X and 0.1% BSA (Bovine Serum Albumin, HiMedia, Mumbai, India). The blocking was performed using 3% BSA for 1 h at RT. After blocking, the cells were incubated with anti-HEV-ORF2 (Dilution, 1:400) antibody against the HEV capsid protein for 1 h at RT. The cells were washed thrice with PBS-T (Tween-20, 0.05%, Sigma Aldrich). The Goat-Anti-Rabbit Alexa Fluor 488 (Thermo Fisher) was used as a secondary antibody, and the cells were incubated for 30 min in the dark. The cells were washed thrice with PBS-T and stained with DAPI (Invitrogen™). […]
# Huh7 cells = test system: Huh7 cells
# Method: To study the cell viability, Huh7 cells were grown in Dulbecco’s Modified Eagle Medium (DMEM, Gibco™, Life Technologies, Grand Island, NY), supplemented with 10% Foetal Bovine Serum (FBS, Gibco™, Qualified, Brazil origin). Further, Huh7 cells were seeded in a 96-well plate (∼0.7 × 10^4 cells/well) and incubated at 37 °C in a humidified 5% CO2 incubator. […] After 4 d, the MTT (3-dimethylthiazol-2-yl-diphenyl tetrazolium bromide) assay was performed per the manufacturer’s protocol (Himedia Laboratories, Thane, India). Cell viability percentage was calculated by comparing treated cells with untreated cells.
# p6 HEV-Luc Replicon = test: HEV replicon (p6 HEV-Luc) luciferase assay in Huh7 cells; assay type: cell-based; conditions: Hepatitis E virus, Huh-7, 72 h, read-out: IC50 HEV replicon luciferase activity
# From the text: as §3
# Following transfection, the cells were incubated with inhibitors for 72 h at 37 °C in a CO2 incubator. […] The cells were then lysed according to the manufacturer’s protocol, and the luminescence was recorded on Tecan Spark® (Tecan Trading AG, Switzerland) multimode plate reader. In replicon, the luminescence was normalised w.r.t to uninfected (0%) and untreated cells (100%).
# [4] = read-out: IC50 (µM) NTPase activity
Compound,IC50 (HEV helicase [1]; [4]) [µM],IC50 (HEV helicase [2]) [µM],other results
"COc1cccc2c1C(=O)c1c(O)c3c(c(O)c1C2=O)C[C@@](O)(C(C)=O)C[C@@H]3O[C@H]1C[C@H](N)[C@H](O)[C@H](C)O1 [Daunorubicin HCL, daunorubicin HCL]",7.66,8.25,–
Nc1nc2c(ncn2C2OC(COP(=O)(O)OP(=O)(O)OP(=O)(O)O)C(O)C2O)c(=O)[nH]1 (centres unmarked) [GTP],–,–,"Km (HEV helicase [1]; read-out: Km (substrate, NTPase activity), GTP 0 to […], Michaelis-Menten fit): 350 µM"
"CN1c2c(nc(N)[nH]c2=O)NC[C@@H]1CNc1ccc(C(=O)N[C@@H](CCC(=O)O)C(=O)O)cc1 [Levomefolic acid, 5-methyltetrahydrofolate (levomefolic acid)]",–,13.9,IC50 (HEV helicase [1]): 3.65 µM
C[C@]12C=CC(=O)C=C1CC[C@@H]1[C@@H]2[C@@H](O)C[C@@]2(C)[C@H]1CC[C@]2(O)C(=O)CO [Prednisolone],4.2,25.8,–
CN(Cc1cnc2nc(N)nc(N)c2n1)c1ccc(C(=O)N[C@@H](CCC(=O)O)C(=O)O)cc1 [Methotrexate],–,–,"HEV replication inhibition (IFA) ([3]; 50 nM Mtx): ~81%; fluorescence level (ORF2, IFA) ([3]; 100 nM methotrexate, untreated 100%): ~6%; inhibition at 0.1 µM ([3]; Hepatitis E virus, Huh-7, read-out: inhibition of HEV replication (IFA)): ~94%; Cytotoxicity (MTT assay) (Huh7 cells): < 100 nM; IC50 (p6 HEV-Luc Replicon): 0.0731 ± 0.0127 µM"
"O=C(O)c1cc(=O)c2c(OCC(O)COc3cccc4oc(C(=O)O)cc(=O)c34)cccc2o1 [Disodium cromoglycate, disodium cromoglycate]",14.8,39.8,–
